# Legend:
# [1] = acute toxicity in the mouse, orally and intravenously; conditions: in vivo
# Procedure: (§1) As already stated, the compounds according to the invention show a marked antiplatelet aggregation activity. Moreover, their toxicity is very low. For example, the acute toxicity of the salt above referred by LM-PT bisulfate, was evaluated in the mouse orally and intravenously. The LD50 were about 400 mg/kg and about 100 mg/kg, respectively. The DPPV (disaggregating power percentage value) was evaluated for LM-PT bisulfate, by the ADP induced aggregation test ex vivo in the rat, orally. For a single dose of 100 mg/kg, the DPPV was 92-96%.
# [2] = system: ADP induced aggregation; assay: ADP induced aggregation test ex vivo in the rat, orally; conditions: single dose of 100 mg/kg
# Procedure: as §1
smiles,measurement,setting,value
"Cn1cnc2c1c(=O)n(CCCCC(=O)CN1CCc3sccc3C1)c(=O)n2C [LM-PT bisulfate, N-[2-Reto-6-(3,7-dimethylxanthine-1-yl)hexyl]-4,5,6,7-tetrahydro-thieno[3,2-c]pyridine]",LD50,"[1]; iv, intravenously",~100 mg/kg
same,LD50,"[1]; po, orally",~400 mg/kg
same,DPPV (disaggregating power percentage value),[2],92-96%
